Where a chain is given by its changes, count along the chain named.
How the values were obtained:
R68S-PAH = biological target: T1, R68S-PAH (Homo sapiens, UniProt P00439, R68S); experiment: ANS-monitored thermal unfolding of R68S-PAH; format: binding; details: for ΔT0.5 PAHR68S / T0.5 PAHR68S: 100 μM compound; for ΔT0.5 PAHR68S: vs no ligand; for T0.5 PAHR68S: mean ± SD; for stabilization of R68S-PAH: 100 μM ligand
T1 construct: made in house; host or cells: E. coli
T1 sequence (P00439 1-452 R68S): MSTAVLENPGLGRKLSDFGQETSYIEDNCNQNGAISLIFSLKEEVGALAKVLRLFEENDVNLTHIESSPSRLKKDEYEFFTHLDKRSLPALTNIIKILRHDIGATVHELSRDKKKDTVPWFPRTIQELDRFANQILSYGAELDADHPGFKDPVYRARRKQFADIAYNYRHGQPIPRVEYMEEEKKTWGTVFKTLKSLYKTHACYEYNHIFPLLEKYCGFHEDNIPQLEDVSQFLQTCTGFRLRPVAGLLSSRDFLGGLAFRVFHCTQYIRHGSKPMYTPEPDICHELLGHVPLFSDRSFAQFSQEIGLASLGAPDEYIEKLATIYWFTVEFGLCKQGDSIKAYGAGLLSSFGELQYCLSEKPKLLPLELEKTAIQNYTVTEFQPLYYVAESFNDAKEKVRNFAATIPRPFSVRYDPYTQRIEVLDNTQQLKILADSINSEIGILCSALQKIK
Method: HTS for ligand-induced PAH stabilization was performed by monitoring the thermal denaturation of recombinant pure PAH protein in the presence of the extrinsic fluorescent probe 8-anilino 1-naphtalene sulfonic acid (ANS; Aldrich). HTS experiments were performed in a FluoDia T70 High Temperature Fluorescence Microplate Reader (Photon Technology International). Protein-ligand solutions (200 uL) were dispensed into 96-well microplates (ThermoFast®96 Skirted from Abgene) and overlayed with mineral oil. Protein solutions contained 0.1 mg/ml PAH (2 μM in PAH subunit) in 20 mM Hepes 200 mM NaCl pH 7.0 and 100 μM ANS. Ligands were added in DMSO, at 100 μM and 2.5% final concentration, respectively. Control experiments in the absence of DMSO and/or ligands were routinely performed in each microplate. Ligands (from MayBridge HitFinder™ Collection Database) were manually added to the microplates containing the protein solutions and incubated at 25° C. for 30 min before loading them onto the microplate reader. Thermal denaturation was monitored by following the increase in ANS fluorescence intensity due to protein unfolding λexc=395 and λern=500 nm; filters (Matulis D, et. Al., Biochemistry 2005, 44(13):5258-66). Fluorescence was registered in the 25-75° C. range, at a 1° C./min scan rate and allowing the system to equilibrate at each temperature for 1 min before fluorescence acquisition The experiments were real-time monitored using the software provided by the manufacturer. After smoothing and normalization of the experimental data, ligand induced stabilization was screened by estimation of the T0.5 as midpoint temperature of the transition defined as the temperature where half of the unfolded fluorescence signal (fu) is experimentally observed, using a home-built software written in C++ and the following expression (equation 1): […]
Additional thermal denaturation experiments were performed on a Cary Eclipse fluorescence spectrophotometer equipped with a temperature controlled Peltier multicell holder (Varian). Samples containing PAH (2 μM subunit) in 20 mM NaHepes, 200 mM NaCl, pH 7.0, 100 μM ANS, 2.5% DMSO and 0-100 μM ligands were incubated at room temperature for 30 min to allow equilibration prior to measurements. Thermal denaturation was monitored by following changes in ANS fluorescence emission (excitation at 395 and emission at 500 nm; slits 10 nm) at a 1 K/min in a 20-80° C. range. Each run contained 4 different samples, including a control in the absence of ligand. Data analysis was performed by fitting of the experimental fluorescence to equation 1.
Similar ligand-induced stabilization experiments were performed using i) a double truncated form of PAH equivalent to the catalytic domain (PAH103-428) lacking both the regulatory N-terminal domain and the tetramerization motif and existing as a functional dimmer and ii) the R68S-PAH mutant, associated to mild PKU and one of the few PKU mutants that display enough stability to be purified as a stable tetramer.

wt-PAH = biological target: T2, wt-PAH (Homo sapiens, UniProt P00439); experiment: Quenching of PAH Trp-emission fluorescence; format: binding; details: apparent affinity, data not shown; read-out: ligand concentration inducing a 50% decrease in Trp-fluorescence
T2 construct: made in house; host or cells: E. coli
T2 sequence (P00439 1-452): T1 sequence (P00439 1-452 R68S) with S68R
Method: As expected, the stabilizing effect was concentration dependent for all four of them, being significant at 25 μM for compounds 11 and 13 (FIG. 2). […] The apparent affinities of wt-PAH for these four ligands were further studied by monitoring quenching effects of these ligands on PAH Trp-emission fluorescence (not shown). Ligands 11 and 13 induced significant fluorescence quenching, inducing a 50% decrease in Trp-fluorescence at ˜30 and ˜3 μM for ligands 11 and 13, respectively.

[1] = Solubility in dosing stocks and final solutions; format: physicochemical; details: 50 mg/ml in 100% DMSO stock and 5 mg/ml in 10% DMSO and 10% glucose
Method: Solutions of Compounds 11 and Compound 13 were prepared at concentrations of 5 mg/ml (14 mM) in 10% DMSO and 10% glucose. For that, stocks of 50 mg/ml (140 mM) of each compound in 100% DMSO were diluted 1:10 with a 10% glucose solution. Both the stocks and the final solutions of Compounds 11 and 13 are in fact suspensions since the compound is not soluble al these conditions.

| ΔT0.5 PAHR68S (R68S-PAH) | T0.5 PAHR68S (R68S-PAH) | stabilization of R68S-PAH (R68S-PAH) | EC50 (wt-PAH) | solubility [1] | SMILES |
| --- | --- | --- | --- | --- | --- |
| 8.2 °C | 57.1 ± 0.3 °C | significantly stabilized | ~30 µM | not soluble | Nc1c(-c2ccc3ccccc3n2)c2ccc([N+](=O)[O-])cc2c(=O)n1Cc1ccccc1 [Compound 11, 3-amino-2-benzyl-7-nitro-4-(2-quinolyl)-1,2-dihydroisoquinolin-1-one] |
| 1.1 °C | 50.0 ± 1.4 °C | – | – | – | Cc1onc(-c2ccccc2)c1-c1n[nH]c(N)c1C#N [Compound 5, 5-amino-3-(5-methyl-3-phenyl-4-isoxazolyl)-1H-pyrazole-4-carbonitrile] |
| 3.2 °C | 52.1 ± 1.6 °C | significantly stabilized | – | – | Cn1cnc([N+](=O)[O-])c1N1CCN(C(c2ccccc2)c2ccccc2)CC1 [Compound 6, 1-benzhydryl-4-(1-methyl-4-nitro-1H-imidazol-5-yl)piperazine] |
| 1.6 °C | 50.5 ± 0.5 °C | only a slight stabilized | ~3 µM | not soluble | Cc1ccnc(-n2c(=S)[nH]c3sc(C)c(C)c3c2=O)c1 [Compound 13, 5,6-dimethyl-3-(4-methyl-2-pyridinyl)-2-thioxo-2,3 dihydrothieno[2,3-d]pyrimidin-4(1H)-one] |
